From patent EP1228058B1, “BENZOPYRANYL GUANIDINE DERIVATIVES, PROCESS FOR PREPARATION THEREOF, AND PHARMACEUTICAL COMPOSITIONS CONTAINING THEM” (Dongbu Hannong Chemical Co., Ltd., priority 1999, dated 2001)
Values joined by “and” are separate entries in the source; they are usually repeats but may differ in a detail not shown here. Equal values may be shown once. Read-outs that look alike come from different tables or passages of the source.

How the values were obtained:
[1] = system: A7r5; assay: Inhibition of intracellular ROS induced by H2O2 (H2DCFDA) in A7r5; format: cell-based; conditions: Rattus norvegicus
Experimental: Measurement of intracellular ROS (Reactive Oxygen Species) was determined using H2DCFDA (2',7'-dichlorodihydrofluorescein diacetate, Molecular Probes, Eugene, OR, USA). H2DCFDA is a non-polar compound that readily diffused into cells, where it is hydrolyzed by intracellular esterase to polar derivative H2DCF (2',7'-dichlorodihydrofluorescein) which can not cross the cell membrane, and thereby trapped within the cell. H2DCF is low-fluorescent, but converted to high-fluorescent DCF (2',7'-dichlorofluorescein) by intracellular ROS. Therefore, the intracellular ROS formation can be determined from the amount of converted DCF. HUVEC (Human umbilical Vascular Endothelial Cells) or A7r5 (Rat thoracic aorta smooth muscle cells) were used. HUVEC were cultured in Kaighn's F12K medium supplemented with 10% heat-inactivated FBS, 0.1 mg/ml heparin sodium, 0.03-0.05 mg/ml ECGS (Endothelial cell growth supplement) and 1% antibiotics, and A7r5 were cultured in DMEM supplemented with 10% heat inactivated FBS and 1% antibiotics. To measure the intracellular ROS, HUVEC or A7r5 were preincubated for 30 min in the presence of test compounds (10^-7-10^-5 M). Thereafter, cells were stimulated with H2O2 (10^-6 and 10^-5 M for 20 min), and then incubated in the dark for 2 hr at 37 °C in 50 mM phosphate buffer (pH 7.4) containing 5 uM H2DCFDA. The quantity of DCF fluorescence (485 nm excitation, 530 nm emission) was measured using Fluorescence plate reader (FL600, Biotek Instruments).

[2] = system: brain ischemia-reperfusion in Sprague-Dawley rats; assay: Protection against brain damage induced by brain ischemia-reperfusion
Experimental: Male Sprague-Dawley rats (350±50 g, SamYook Experimental Animals Co., Korea) were anesthetized by the injection of pentobarbital sodium at a dose of 40 mg/kg, after which the femoral vein and the artery were cannulated with PE-10 while the left carotid artery was exposed. Five min. before the operation, 20 ug/kg of heparin sulfate was injected into the peritoneal cavity. For the continuous measurement of arterial pressure, with a insertion of a blood pressure measuring device into the femoral artery. About 10 ml of blood was taken from the femoral vein to reduce the blood pressure down to 30 mmHg. If the blood pressure is not reduced to less than 100 mmHg with a withdrawal of 7 ml of blood, the rats are considered to have high sympathetic tone.
While the blood pressure was maintained at 30 mmHg, the exposed left carotid artery was occluded for 20 min by an aneurysm clamp to cause cerebral ischemia. Then, the carotid clamps were removed and the extracted blood was reinfused. To minimize the systemic acidosis, the rats were reinfused with 5 ml of saline containing 0.84% bicarbonate sodium (bicarbonate saline). During operation and restoration period, body temperature was maintained at 37±0.5 °C with the aid of a thermal blanket and incandescent light bulbs. During their restoration from the operation, the body temperature was kept constant for 2 hours or more. […]
24 hours after the operation, the rats were sacrificed with a scaffold and the brain was removed rapidly (3 min). […] After photographs were taken of the stained sections, developed and printed, the percentages of the infarcted brain areas to the total brain were measured and analyzed using an image analyzing program (Image-Pro Plus ver. 3.0.1). […]
The protective effects of the test compounds on the brain damage caused by brain ischemia-reperfusion were expressed as a reduction percentages of infarcted brain areas compared with those of the control group.

[3] = ORAC (oxygen-radical absorbance capacity) assay; format: biochemical; conditions: 1 ORAC unit = net protection by 1 uM Trolox
Experimental: The method utilized β-PE (β-phycoerythrin) as an indicator protein, and AAPH (2,2'-azobis(2-amidinopropane) dihydrochloride) as a peroxy radical generator. Reaction mixtures consisted of test compounds (10^-6M and 10^-4M), β-PE (1.76 x 10^-8M), and AAPH (3 x 10^-3 M) in 75 mM phosphate buffer (pH 7.0). A final volume of 2 ml was used in 24 well plates. Test compounds were first dissolved in acetone and then added to the reaction mixture. Once AAPH was added, the reaction was initiated at 37 °C and the fluorescence (485 nm excitation, 590 nm emission) was measured every 5 min using Fluorescence reader (FL600, Biotek Instrument). The ORAC units were calculated based on the area under the fluorescence curve of β-PE in the presence of the test compound compared to the area generated by 1 uM Trolox. 1 ORAC unit represents the net protection provided by 1 uM Trolox.

[4] = system: A7r5; assay: Inhibition of A7r5 mediated LDL oxidation (MDA); format: cell-based, rat; conditions: Rattus norvegicus; for inhibition at 100 µM: 10^-4 M; for inhibition at 10 µM: 10^-5 M; for inhibition at 1 µM: 10^-6 M
Experimental: A7r5 (ATCC CRL-1444, smooth muscles, thoracic aorta, BDIX rat) cells were cultured in 24 well plates, using the medium of DMEM (Dulbecco's modified Eagle's Medium) supplemented with 10% heat-inactivated FBS (fetal bovine serum) and 1% antibiotics. Confluent A7r5 from plates were washed with phosphate-buffered solution, and DMEM with 10% FBS and 1% antibiotics was added in a total volume of 0.5 ml/well. Cells (2 x 10^5 cells/ml) were preincubated without and with either test compounds (10^-6 - 10^-4 M) or Tocopherol (10^-6 - 10^-4 M) at 37 °C for 30 min. Then, A7r5 alone or A7r5 plus H2O2 (10^-7 M) were exposed to LDL (100 ug/ml) for 24 hr.
The inhibitory effect of the test compounds against the lipid peroxidation was evaluated by calculating MDA reduction rate of the test compounds compared with that of the control group same as the above example 5 (2).

[5] = A7r5 alone, LDL 100 ug/ml, 24 hr, read-out: % Inhibition LDL
[6] = A7r5 plus H2O2 (10^-7 M), read-out: % Inhibition LDL + H2O2 (10^-7M)

Row | Structure (SMILES) | inhibition at 10 µM ([1]; A7r5, Conc. 10^-5 M, read-out: Inhibition (%) H2O2 (10^-6M)) | inhibition at 1 µM ([1]; A7r5, Conc. 10^-6 M) | inhibition at 0.1 µM ([1]; A7r5, Conc. 10^-7 M, read-out: Inhibition (%) H2O2 (10^-6M)) | Infarction Area Reduction(%) ([2]; Dose 30 mg/kg, compared with the control group) | Infarction Area Mean±SD(%) ([2]; Dose 30 mg/kg, peritoneally, 30 min before and 2, 4, 16 hours after occlusion) | side effects ([2]; rat, in vivo, 30 mg/kg) | ORAC units ([3]; Conc. 10^-4 M) | ORAC units ([3]; Conc. 10^-6 M) | inhibition at 100 µM [4, 5] | inhibition at 100 µM [4, 6] | inhibition at 10 µM [4, 5] | inhibition at 10 µM [4, 6] | inhibition at 1 µM [4, 5] | inhibition at 1 µM [4, 6]
1 | COC(OC)[C@@]1(C)Oc2ccc([N+](=O)[O-])cc2[C@H](NC(=NC#N)NCc2ccccc2)[C@H]1O [Example 24, (2S, 3R, 4S)-N''-cyano-N-(6-nitro-3,4-dihydro-3-hydroxy-2-methyl-2-dimethoxymethyl-2H-benzopyran-4-yl)-N'-benzylguanidine] | 185% | 111% | 72% |  |  |  |  |  |  |  |  |  |  | 
2 | COC(OC)[C@@]1(C)Oc2ccc(N)cc2[C@@H](NC(=NC#N)NCc2ccccc2)[C@@H]1O [Example 40, (2S, 3S, 4R)-N''-cyano-N-(6 - amino-3,4-dihydro-3-hydroxy-2-methyl-2-dimethoxymethyl-2H-benzopyran-4-yl)-N'-benzylguanidine] |  |  |  | 42.0% | 23.0% and 23.0 ± 3.3% | did not suffer from any side effects | 3.250 ORAC units | 2.047 ORAC units | 57.5% | 64.3% | 51.4% | 62.5% | 40.9% | 49.7%
